Patent publication US9956199B2, “Chromane-like cyclic prenylflavonoids for the medical intervention in neurological disorders” (priority 2011, dated 2018)
Entries after “also recorded” stand apart in the source; their conditions may differ.

Assays:
[1] = tested on: MEF E16 cells; assay: immunocytochemical staining for DCX and Map2ab in MEF cultures (neuronal differentiation); format: cell-based, mouse; settings: 7 days; for number of DCX positive cells / number of DCX/Map2ab double positive cells: Neurobasal plus 1% FCS, 10 μM; for number of DCX positive cells: FIG. 3A; for number of DCX/Map2ab double positive cells: FIG. 3B
Experimental: Following the results from the Luciferase assay described in Example 17, the inventors examined the ability of compounds according to the invention and reference compounds to promote differentiation of MEF E16 cells, using immunocytochemical staining with DCX and Map2ab antibodies.
Compound 1a at 10 and 100 μM was analyzed for its effect on the expression of the neuronal specific markers DCX and Map2ab using primary fetal mouse brain derived cells stimulated in DMEM-KO media.
Mouse embryonic day 16 forebrain cells were prepared as described in Example 17. Before seeding the cells, glass-coverslips were coated and prepared. Glass-coverslips (13 mm) (Menzel GmbH, Braunschweig, Germany) were incubated in 1 M HCl at 65° C. overnight and stored in isopropanol until further use. Coverslips were put into 24-well test plates and air-dried. Subsequently coverslips were incubated for 1 h with 100 μg/ml Poly-L-ornithin solution at 37° C. After washing three times with sterile water coverslips were incubated with 5 μg/ml Laminin solution for 2 h. Immediately after removal of the Laminin solution cells were seeded (40.000 cells/well) in DMEM-KO plus supplement or in NB-B27 plus 1% FCS medium. One day later, cells had attached to the substrate. Cells were stimulated with the above-mentioned substances (in DMEM-KO plus supplement medium: 10 μM and 100 μM; in NB-B27 plus 1% FCS medium: 10 μM) for 3 or 7 days. In the 7 day group, medium including the substances was replaced after three days. Cultures were maintained at 37° C. in a humidified incubator with 5% CO2.
Cells were fixed with phosphate-buffered 4% paraformaldehyde (Sigma-Aldrich, Taufkirchen, Germany). […] The specimens were incubated overnight at 4° C. with the primary antibodies at the following dilutions in FSGB: rabbit anti Doublecortin (DCX) 1:500 (NEB, Frankfurt, Germany) and mouse anti-Map 2a+2b 1:400 (Sigma-Aldrich, Taufkirchen, Germany). After washing three times with FSGB, cells were incubated with the species-specific secondary antibodies, which were conjugated to fluorochromes, for 2 hours in the dark at room temperature. To remove unbound secondary antibodies, cells were washed again with PBS. Nuclear counterstaining was performed with 4′,6′-diamidino-2-phenylindole dihydrochloride hydrate (DAPI) at […] (Sigma Aldrich, Taufkirchen, Germany). Finally, cells were washed again three times with PBS and mounted on microscope slides using Prolong Antifade reagent (Invitrogen, Oreg., USA).
The immunostainings were examined using Olympus IX81 inverted research microscope and the software Volocity 5.3.1. To quantify the number of cells, five indiscriminately chosen visual fields per coverslip were selected under a focus of 40 times. The total number of cells (DAPI positive cells), the number of DCX positive, Map2ab positive, and DCX/Map2ab double positive cells was determined.

[2] = tested on: MEF cells; assay: neurite length and branching in MEF cultures; format: cell-based, mouse; settings: 10 μM and 100 μM, 7 days
Experimental: Mouse embryonic day 16 forebrain cells were prepared and treated as described in Example 17.
The morphology of MEF cells after a 7 day treatment with retinoic acid/valproic acid or with compound 1a (ENDF1) is illustrated in FIG. 4. Cells were fixed and stained with DCX and Map2ab antibodies as described in Example 18. Three independent experiments were performed and evaluated. Data acquisition was done by using the software Volocity 5.3.1 for measurement and photographical documentation. The following parameters were analyzed: polarity, process, number of branches, number and length of sprouts, neurite-length and growth cone morphology.
For quantitative analysis of neurite length, neurons with long neurites were taken into consideration. […] For quantitative analysis of neurite branching, the branch density (number of branches per 100 μm of neurite length) was counted. For analysis, the DCX staining with DMEM-KO medium was used, since DCX, in contrast to Map2ab, is localized throughout the neurites.

[3] = tested on: chicken dorsal root ganglion neurons; assay: neurite outgrowth in primary chicken dorsal root ganglion neurons; format: cell-based; settings: E8 and E15 DRG neurons, 12 to 24 hours; compound 1a 10 μM, NGF 20 ng/ml; GAP-43 staining
Experimental: Dorsal root ganglion neurons comprise of an axon with two branches and are a good model for neuronal differentiation. Embryonic day 8 and 15 chicken dorsal root ganglions were examined for immunochemical staining with GAP43 after incubation with NGF 20 ng/ml and compound 1a (ENDF1) 10 μM to analyze whether compound 1a alone or in combination with the nerve growth factor enhances neurite outgrowth and branching.
Embryonic day (E) 8 and E15 chicken Dorsal Root Ganglions (DRGs) were prepared as described in: Aigner, 1993; Aigner, 1995. Briefly, foetuses were taken out of the egg, decapitated and the DRGs were targeted from the ventral side. The 10 lumbar region DRGs per foetus were dissected, and a total of 100 DRGs were collected in 10 ml DPBS in a 15 ml Falcon tube. DRGs were centrifuged 120×g for 3 min and then enzymatically treated with 1 ml trypsin 0.5 mg/ml+EDTA 0.22 mg/ml (PAA, Pasching, Austria) for 15 min. Then, 9 ml of DMEM 10% FCS were added to inactivate the trypsin and DRGs were centrifuged 120×g for 5 min. DRGs were resuspended and washed with 5 ml of DMEM 10% FCS, pipetted up and down to dissociate them, centrifuged, resuspended in 5 ml of DMEM 10% FCS and transferred into a 60 mm diameter cell culture dish. […]

SMILES | number of DCX positive cells [1] | number of DCX/Map2ab double positive cells [1] | neurite branching/sprouting (branches per 100 μm of neurite length) ([2]; DMEM-KO, FIG. 4J) | neurite length (DCX positive neurite profiles) ([2]; compared to control and RA+VPA, FIG. 4I) | expression of the neuronal specific markers DCX and Map2ab (percentage of positive cells) ([1]; DMEM-KO medium, 10 and 100 μM, FIG. 2) | neurite extension [3]
COc1cc2c(c(O)c1C(=O)/C=C/c1ccc(O)cc1)CCC(C)(C)O2 [Compound 1b, (E)-1-(5-hydroxy-7-methoxy-2,2-dimethylchroman-6-yl)-3-(4-hydroxyphenyl)prop-2-en-1-one] | strongly enhanced the number of DCX positive cells | highest number of DCX and Map2ab double positive cells |  |  |  | 
COc1cc2c(c(O)c1C(=O)/C=C/c1ccc(O)cc1)C=CC(C)(C)O2 [Compound 1a, (E)-1-(5-hydroxy-7-methoxy-2,2-dimethyl-2H-chromen-6-yl)-3-(4-hydroxyphenyl)prop-2-en-1-one] | most vigorous effect | highest number of DCX and Map2ab double positive cells | high density of branches/sprouts; also recorded: strongly increases neurite length and neurite branching; also recorded: dramatic increase in branching/sprouting | significant increase in neurite length; also recorded: strongly increases neurite length and neurite branching; also recorded: much longer neurites | elevated number of DCX positive and of MAP2ab positive cells; also recorded: enhances the expression of the neuronal specific markers DCX and Map2ab | strongly promote neurite extension; also recorded: promotes neurite extension to a similar degree as NGF; also recorded: almost in the range of NGF
